# System: 16 prostate cell lines
# Assay: IC50 grouping of the panel of prostate cell lines (MTS)
# Assay type: cell-based
# Conditions: Homo sapiens
# Protocol: Based on the IC50s, cell lines were classified into two groups: 11 cell lines with IC50 lower than 200 nM were designated as sensitive group, and 5 cell lines with IC50 at least greater than 2 μM were considered as resistant group. The separation of these two groups was quite well, and the sensitive/resistant demarcation of 200 nM is within the peak range of BMS-A plasma concentrations in patients treated with the doses near the maximum tolerated dose.
# The effect of BMS-A (dasatinib) treatment on cell proliferation was measured using a MTS colorimetric method (Promega, Madison, Wis.). The optimum number of cells to seed in 96-well plates to achieve linearity were determined in pilot experiments. Cells were plated at density of 2000-5000 cells/well into 96-well plates and cultured overnight. Cells were then treated with dasatinib at serially diluted concentrations. Three days later, MTS was added to the medium and quantified on a SPECTRAMAX® photometric plate reader (Molecular Devices, Sunnyvale, Calif.) at 490 nm. The results were plotted against drug concentrations and IC50s were calculated using Prism4 software (GraphPad, San Diego, Calif.). […] The mean±standard deviation (SD) were calculated except for cell lines that were highly resistant to the compound where accurate IC50s were hard to obtain. […]
compound,measurement,setting,value
"Cc1nc(Nc2ncc(C(=O)Nc3c(C)cccc3Cl)s2)cc(N2CCN(CCO)CC2)n1 [BMS-A, N-(2-chloro-6-methylphenyl)-2-[[6-[4-(2-hydroxyethyl)-1-piperazinyl]-2-methyl-4-pyrimidinyl]amino]-5-thiazolecarboxamide]",IC50,5 cell lines considered as resistant group,> 2000 nM
same,IC50,11 cell lines designated as sensitive group,< 200 nM

# Reference: patent publication US20100120788A1, “IDENTIFICATION OF POLYNUCLEOTIDES FOR […] OF COMPOUNDS THAT […] WITH AND/OR MODULATE PROTEIN TYROSINE KINASES AND/OR PROTEIN TYROSINE KINASE […] IN PROSTATE CELLS” (Bristol-Myers Squibb Company, priority 2007, published 2010)
